Paper PMC8151276, “An Integrated Approach toward NanoBRET Tracers for Analysis of GPCR Ligand Engagement” (Molecules, 2021)
Values joined by “and” are separate entries in the source; they are usually repeats but may differ in a detail not shown here. Equal values may be shown once. Read-outs that look alike come from different tables or passages of the source.

What was measured:
Type in all cases: binding
FZD2 = biological target: T1, FZD2 (Homo sapiens, UniProt Q14332); experiment: NanoBRET screen HiBiT-FZD2 in HEK293
T1 construct: purchased Promega (in-house HiBiT-GPCR construct library, NanoBRET)
T1 sequence (Q14332 24-565): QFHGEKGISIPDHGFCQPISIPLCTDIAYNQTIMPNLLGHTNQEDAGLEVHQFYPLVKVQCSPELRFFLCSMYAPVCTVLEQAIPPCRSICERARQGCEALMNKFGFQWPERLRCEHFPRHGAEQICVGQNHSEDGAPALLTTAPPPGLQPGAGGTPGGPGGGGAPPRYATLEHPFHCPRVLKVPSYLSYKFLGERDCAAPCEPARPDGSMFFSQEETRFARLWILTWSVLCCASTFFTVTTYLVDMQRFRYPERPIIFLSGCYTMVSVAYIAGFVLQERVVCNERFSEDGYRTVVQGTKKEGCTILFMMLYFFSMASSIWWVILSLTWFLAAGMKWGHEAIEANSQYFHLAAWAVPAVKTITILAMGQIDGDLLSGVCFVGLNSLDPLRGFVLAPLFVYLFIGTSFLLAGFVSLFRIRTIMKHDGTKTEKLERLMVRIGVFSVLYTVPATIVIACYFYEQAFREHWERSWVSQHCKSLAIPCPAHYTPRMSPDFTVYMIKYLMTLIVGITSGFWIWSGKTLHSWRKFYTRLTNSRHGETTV
Experimental: (§1) Each tracer candidate was screened across the entire library of HiBiT-GPCR constructs using NanoBRET as the detection modality. As depicted in Figure 4A, the specificity of interactions was evaluated through decrease in BRET due to competitive displacement of a bound tracer by excess parental compound. Each tracer was analyzed for binding to each HiBiT-GPCR fusion in the absence and in the presence of competing parental compound. Briefly, HEK293 cells were transfected with HiBiT-GPCR constructs diluted into promoterless DNA to reduce expression and maximize translocation to the cell surface. Each tracer candidate was then screened at concentrations of 1 μM and 0.1 μM across cells expressing these fusions. Cells were treated for 1.5 h with tracer either alone or in the presence of 20 μM competing parental compound (i.e., control). BRET was measured upon addition of purified LgBiT and subsequent complementation with HiBiT genetically fused to a GPCR. The specificity of interactions was assessed through a decrease in BRET signal due to competitive displacement of the bound tracer. To further gauge the robustness of these interactions, the fold response over the control (i.e., BRETtracer/BRETcontrol) was calculated. We chose a 1.5-fold response, which translates to ≥7-fold signal over noise as the minimal threshold required to score an interaction as positive. […]. Below we highlight the screening results obtained for our exemplary fluorescent tracers based on Clozapine, Amitriptyline and AZD1283.
(§2) HiBiT-GPCR DNA constructs were diluted in 10 mM Tris pH 8 to a final concentration of 0.01 μg/μL, arrayed in 96-well plates and stored at −20 °C. For transfection, HEK293 cells were suspended in Opti-MEM (without phenol red) supplemented with 2% fetal bovine serum (Seradigm) and 100 units/mL penicillin–streptomycin (Gibco) at a final concentration of 220,000 cells/mL and dispensed into white 96-well plates at 90 μL/well. Subsequent transfections and screens were carried using an Agilent Bravo Automated Liquid Handling Platform. First, the 96-well HiBiT DNA arrays were diluted 25-fold in Opti-MEM (without serum or phenol red) to a final concentration of 0.0004 μg/μL and 20 μL of the diluted DNAs were transferred into new 96-well plates. Next, promoterless carrier DNA (1 μg/μL) was diluted 25-fold (0.04 μg/μL) and then dispensed into the diluted arrays at 20 μL/well. Following brief mixing, Viafect transfection reagent (Promega) diluted 16-fold into Opti-MEM was dispensed into the plates at 40 μL/well. After mixing by pipetting, plates were incubated for 10 min on the pipetting station deck. The DNA-transfection reagent complexes were then added to plates containing cells. To facilitate the screen, 10 μL of DNA-transfection reagent complexes were added in duplicates to the top 4 and bottom 4 rows, resulting in two identical 48-well arrays per plate. Plates with transfected cells were incubated for 18–20 h at 37 °C/5% CO2. A screen of each tracer across the entire library using two different concentrations requires duplicate plates of transfected cells. Depending on the number of tracers being screened, transfections can be scaled up using the same ratios. The next day, for each tracer, four 20× screening solutions in tracer dilution buffer (Promega) were prepared: two duplicates at final concentration of 20 μM and two duplicates at a final concentration of 2 μM. A competing unmodified compound was added to one of each duplicate at a final concentration of 400 μM. The four resulting solutions were diluted 4-fold in Opti-MEM without serum or phenol red to generate 5× solutions (5 µM and 0.5 µM tracer +/− 100 μM competing compound). To screen the library, a BioTek MultiFlo FX liquid dispenser was used to dispense 22.5 µL of tracer solution to the top 4 rows and 22.5 µL tracer + competing compound solution to the 4 bottom rows. Plates were briefly mixed on an orbital shaker and incubated for 1.5 h at room temperature. […]

HTR2A = biological target: T2, HTR2A (Homo sapiens, UniProt P28223); experiment: NanoBRET screen HiBiT-HTR2A in HEK293
T2 construct: purchased Promega (in-house HiBiT-GPCR construct library, NanoBRET)
T2 sequence (P28223 whole entry): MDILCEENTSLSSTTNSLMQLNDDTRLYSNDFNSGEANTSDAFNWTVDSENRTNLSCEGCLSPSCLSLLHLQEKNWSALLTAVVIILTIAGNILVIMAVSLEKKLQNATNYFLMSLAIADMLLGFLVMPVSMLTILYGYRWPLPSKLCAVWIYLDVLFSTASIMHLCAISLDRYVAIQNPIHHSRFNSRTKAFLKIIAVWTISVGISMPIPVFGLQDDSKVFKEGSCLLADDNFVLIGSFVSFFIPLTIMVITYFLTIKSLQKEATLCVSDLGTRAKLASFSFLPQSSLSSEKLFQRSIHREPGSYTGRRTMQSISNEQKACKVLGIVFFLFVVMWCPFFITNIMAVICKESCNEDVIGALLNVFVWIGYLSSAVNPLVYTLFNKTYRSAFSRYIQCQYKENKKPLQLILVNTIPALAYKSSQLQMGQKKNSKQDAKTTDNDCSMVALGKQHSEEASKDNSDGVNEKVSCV

HTR5A = biological target: T3, HTR5A (Homo sapiens, UniProt P47898); experiment: NanoBRET screen HiBiT-HTR5A in HEK293
T3 construct: purchased Promega (in-house HiBiT-GPCR construct library, NanoBRET)
T3 sequence (P47898 whole entry): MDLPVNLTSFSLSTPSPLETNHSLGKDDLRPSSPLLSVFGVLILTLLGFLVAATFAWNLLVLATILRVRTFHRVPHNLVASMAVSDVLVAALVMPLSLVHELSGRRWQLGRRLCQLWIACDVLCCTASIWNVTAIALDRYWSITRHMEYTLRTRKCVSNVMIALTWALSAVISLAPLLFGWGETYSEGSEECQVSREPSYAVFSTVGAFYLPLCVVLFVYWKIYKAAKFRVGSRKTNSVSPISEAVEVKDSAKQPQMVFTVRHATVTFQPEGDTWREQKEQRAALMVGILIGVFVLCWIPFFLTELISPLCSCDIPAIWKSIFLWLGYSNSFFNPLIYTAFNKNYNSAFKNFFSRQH
Experimental: as §1, §2

P2RY6 = biological target: T4, P2RY6 (Homo sapiens, UniProt Q15077); experiment: NanoBRET screen HiBiT-P2RY6 in HEK293
T4 construct: purchased Promega (in-house HiBiT-GPCR construct library, NanoBRET)
T4 sequence (Q15077 whole entry): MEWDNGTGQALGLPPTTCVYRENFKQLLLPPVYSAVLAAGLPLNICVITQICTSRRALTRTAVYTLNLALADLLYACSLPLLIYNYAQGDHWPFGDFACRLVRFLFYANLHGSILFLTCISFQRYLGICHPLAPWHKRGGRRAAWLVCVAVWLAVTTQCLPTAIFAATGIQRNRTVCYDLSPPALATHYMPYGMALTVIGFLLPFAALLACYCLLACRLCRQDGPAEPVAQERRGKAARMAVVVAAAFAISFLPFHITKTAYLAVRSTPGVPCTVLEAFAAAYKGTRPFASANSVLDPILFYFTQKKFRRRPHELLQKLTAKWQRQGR
Experimental: as §1, §2

GALR1 = biological target: T5, GALR1 (Homo sapiens, UniProt P47211); experiment: NanoBRET screen HiBiT-GALR1 in HEK293
T5 construct: purchased Promega (in-house HiBiT-GPCR construct library, NanoBRET)
T5 sequence (P47211 1-349): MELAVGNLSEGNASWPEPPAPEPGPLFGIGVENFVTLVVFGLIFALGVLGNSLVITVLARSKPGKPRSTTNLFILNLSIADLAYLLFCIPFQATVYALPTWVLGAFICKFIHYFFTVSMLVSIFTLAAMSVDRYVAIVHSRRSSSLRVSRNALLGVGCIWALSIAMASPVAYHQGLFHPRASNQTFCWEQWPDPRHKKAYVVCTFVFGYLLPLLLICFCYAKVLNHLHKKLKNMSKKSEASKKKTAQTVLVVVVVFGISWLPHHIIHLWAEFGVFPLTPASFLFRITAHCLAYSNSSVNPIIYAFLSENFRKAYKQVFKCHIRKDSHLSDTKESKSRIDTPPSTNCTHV
Experimental: as §1, §2

OXTR = biological target: T6, OXTR (Homo sapiens, UniProt P30559); experiment: NanoBRET screen HiBiT-OXTR in HEK293
T6 construct: purchased Promega (in-house HiBiT-GPCR construct library, NanoBRET)
T6 sequence (P30559 1-389): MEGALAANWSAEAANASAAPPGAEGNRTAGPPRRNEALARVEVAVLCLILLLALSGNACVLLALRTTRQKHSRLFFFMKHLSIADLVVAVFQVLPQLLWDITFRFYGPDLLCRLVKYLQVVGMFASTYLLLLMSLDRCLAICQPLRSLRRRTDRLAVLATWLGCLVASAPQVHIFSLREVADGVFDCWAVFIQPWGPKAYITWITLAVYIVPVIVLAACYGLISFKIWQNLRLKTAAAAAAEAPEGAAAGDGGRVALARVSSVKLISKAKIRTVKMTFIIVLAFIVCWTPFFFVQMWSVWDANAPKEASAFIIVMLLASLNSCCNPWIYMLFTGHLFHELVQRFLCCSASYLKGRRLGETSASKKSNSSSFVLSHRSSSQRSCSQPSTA
Experimental: as §1, §2

GRM8 = biological target: T7, GRM8 (Homo sapiens, UniProt O00222); experiment: NanoBRET screen HiBiT-GRM8 in HEK293
T7 construct: purchased Promega (in-house HiBiT-GPCR construct library, NanoBRET)
T7 sequence (O00222 34-908): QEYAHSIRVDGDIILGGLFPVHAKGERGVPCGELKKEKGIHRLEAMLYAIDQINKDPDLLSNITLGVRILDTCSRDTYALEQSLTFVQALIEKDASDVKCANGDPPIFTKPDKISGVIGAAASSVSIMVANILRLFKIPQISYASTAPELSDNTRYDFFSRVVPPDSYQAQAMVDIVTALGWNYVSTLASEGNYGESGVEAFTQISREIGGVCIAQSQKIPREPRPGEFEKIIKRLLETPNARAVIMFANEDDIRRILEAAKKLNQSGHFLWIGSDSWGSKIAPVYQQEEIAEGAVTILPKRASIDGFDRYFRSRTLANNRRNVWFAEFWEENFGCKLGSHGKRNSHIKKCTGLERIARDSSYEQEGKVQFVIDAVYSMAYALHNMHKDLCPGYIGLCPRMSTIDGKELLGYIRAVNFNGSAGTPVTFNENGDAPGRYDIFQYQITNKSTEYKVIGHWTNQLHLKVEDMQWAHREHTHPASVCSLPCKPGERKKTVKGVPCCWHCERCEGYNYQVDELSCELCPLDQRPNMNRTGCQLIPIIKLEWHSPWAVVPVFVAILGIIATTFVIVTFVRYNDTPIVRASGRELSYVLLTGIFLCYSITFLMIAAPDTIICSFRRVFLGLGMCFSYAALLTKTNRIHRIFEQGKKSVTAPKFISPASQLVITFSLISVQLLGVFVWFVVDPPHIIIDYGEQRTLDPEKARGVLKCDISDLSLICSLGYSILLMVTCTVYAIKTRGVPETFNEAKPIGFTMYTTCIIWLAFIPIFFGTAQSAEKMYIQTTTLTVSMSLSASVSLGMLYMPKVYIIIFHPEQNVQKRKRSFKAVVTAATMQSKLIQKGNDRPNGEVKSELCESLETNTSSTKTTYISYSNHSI
Experimental: as §1, §2

SMILES: COc1ccc2[nH]c(-c3ccc(CNC(=O)CCOCCOCCOCCOCCNC(=O)CCc4ccc5n4[B-](F)(F)[N+]4=C(c6ccc[nH]6)C=CC4=C5)cc3)c(CCNC(C)=O)c2n1 [AzomelatoninICO9-2-NB590]
- NanoBRET Fold Response (FZD2; 0.1μM tracer): 0.99
- NanoBRET Fold Response (FZD2; 1μM tracer): 1.11
- NanoBRET Fold Response (HTR2A; 0.1μM tracer): 0.92
- NanoBRET Fold Response (HTR2A; 1μM tracer): 1.02
- NanoBRET Fold Response (HTR5A; 0.1μM tracer): 1.02
- NanoBRET Fold Response (HTR5A; 1μM tracer): 0.84
- NanoBRET Fold Response (P2RY6; 0.1μM tracer): 1.40
- NanoBRET Fold Response (P2RY6; 1μM tracer): 1.09
- NanoBRET Fold Response (GALR1; 0.1μM tracer): 0.87
- NanoBRET Fold Response (GALR1; 1μM tracer): 1.05
- NanoBRET Fold Response (OXTR; 0.1μM tracer): 0.99
- NanoBRET Fold Response (OXTR; 1μM tracer): 0.87
- NanoBRET Fold Response (GRM8; 0.1μM tracer): 0.98
- NanoBRET Fold Response (GRM8; 1μM tracer): 0.98

SMILES: O=C(CCOCCOCCOCCOCCNC(=O)CCc1ccc2n1[B-](F)(F)[N+]1=C(c3ccc[nH]3)C=CC1=C2)NCCCN1CCN(C2=Nc3cc(Cl)ccc3Nc3ccccc32)CC1 [Clozapine-a-2-NB590]
- NanoBRET Fold Response (FZD2; FZD2, 0.1μM tracer): 1.04
- NanoBRET Fold Response (FZD2; FZD2, 1μM tracer): 1.02
- NanoBRET Fold Response (HTR2A; HTR2A, 0.1μM tracer): 2.26
- NanoBRET Fold Response (HTR2A; HTR2A, 1μM tracer): 2.01
- NanoBRET Fold Response (HTR5A; HTR5A, 0.1μM tracer): 1.11
- NanoBRET Fold Response (HTR5A; HTR5A, 1μM tracer): 1.29
- NanoBRET Fold Response (P2RY6; P2RY6, 0.1μM tracer): 1.02
- NanoBRET Fold Response (P2RY6; P2RY6, 1μM tracer): 0.92
- NanoBRET Fold Response (GALR1; GALR1, 0.1μM tracer): 1.05
- NanoBRET Fold Response (GALR1; GALR1, 1μM tracer): 1.09
- NanoBRET Fold Response (OXTR; OXTR, 0.1μM tracer): 1.03
- NanoBRET Fold Response (OXTR; OXTR, 1μM tracer): 1.01
- NanoBRET Fold Response (GRM8; GRM8, 0.1μM tracer): 1.01
- NanoBRET Fold Response (GRM8; GRM8, 1μM tracer): 1.00

SMILES: O=C(CCOCCOCCOCCOCCNC(=O)CCc1ccc2n1[B-](F)(F)[N+]1=C(c3ccc[nH]3)C=CC1=C2)NCCCN1CCN(C2=Nc3ccccc3Oc3ccc(Cl)cc32)CC1 [Loxapine-a-2-NB590]
- NanoBRET Fold Response (FZD2; FZD2, tracer 0.1μM): 1.07
- NanoBRET Fold Response (FZD2; FZD2, tracer 1μM): 1.05
- NanoBRET Fold Response (HTR2A): 1.71 and 1.28
- NanoBRET Fold Response (HTR5A; HTR5A, tracer 0.1μM): 0.97
- NanoBRET Fold Response (HTR5A; HTR5A, tracer 1μM): 1.32
- NanoBRET Fold Response (P2RY6; P2RY6, tracer 0.1μM): 1.26
- NanoBRET Fold Response (P2RY6; P2RY6, tracer 1μM): 0.94
- NanoBRET Fold Response (GALR1; GALR1, tracer 0.1μM): 1.03
- NanoBRET Fold Response (GALR1; GALR1, tracer 1μM): 1.21
- NanoBRET Fold Response (OXTR; OXTR, tracer 0.1μM): 0.97
- NanoBRET Fold Response (OXTR; OXTR, tracer 1μM): 1.02
- NanoBRET Fold Response (GRM8; GRM8, tracer 0.1μM): 1.01
- NanoBRET Fold Response (GRM8; GRM8, tracer 1μM): 1.07

SMILES: Cc1nc2n(c(=O)c1CCN1CCC(c3noc4cc(F)ccc34)CC1)CCCC2OC(=O)NCCOCCOCCOCCOCCNC(=O)CCc1ccc2n1[B-](F)(F)[N+]1=C(c3ccc[nH]3)C=CC1=C2 (centres unmarked) [Risperidone-2-NB590]
- NanoBRET Fold Response (FZD2; FZD2, tracer 0.1μM): 1.01
- NanoBRET Fold Response (FZD2; FZD2, tracer 1μM): 1.03
- NanoBRET Fold Response (HTR5A; HTR5A, tracer 0.1μM): 1.03
- NanoBRET Fold Response (HTR5A; HTR5A, tracer 1μM): 1.28
- NanoBRET Fold Response (P2RY6; P2RY6, tracer 0.1μM): 1.00
- NanoBRET Fold Response (P2RY6; P2RY6, tracer 1μM): 1.03
- NanoBRET Fold Response (GALR1; GALR1, tracer 0.1μM): 1.00
- NanoBRET Fold Response (GALR1; GALR1, tracer 1μM): 0.99
- NanoBRET Fold Response (OXTR; OXTR, tracer 0.1μM): 0.97
- NanoBRET Fold Response (OXTR; OXTR, tracer 1μM): 0.97
- NanoBRET Fold Response (GRM8; GRM8, tracer 0.1μM): 1.00
- NanoBRET Fold Response (GRM8; GRM8, tracer 1μM): 1.04
